pIC50: −log10 of the molar value.
Assays:
cIAP2-BIR2 = cIAP2-BIR2 (Homo sapiens (Human), UniProt Q13489); assay: BIR binding assay (FRET competition), cIAP2 BIR2
In short: (§1)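 Compounds tested as 15-point, 3-fold series displacing 200 nM AlexaFluor647-labelled SMAC peptide from His-tagged BIR domain (cIAP1-BIR3 50 nM; cIAP1-BIR2 and cIAP2-BIR2 325 nM; XIAP-BIR3 100 nM), pH 7.4, 60 min. Eu-W1024 (2 nM) added 30 min; emission ratio fitted for IC50.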

cIAP2-BIR3 = cIAP2-BIR3 (Homo sapiens (Human), UniProt Q13489); assay: BIR binding assay (FRET competition), cIAP2 BIR3; details: for cIAP2 BIR3 vs BIR2 separation window: fold separation (FS) for cIAP2
cIAP1-BIR2 = cIAP1-BIR2 (Homo sapiens (Human), UniProt Q13490); assay: BIR binding assay (FRET competition), cIAP1 BIR2
In short: as §1

XIAP-BIR3 = XIAP-BIR3 (Homo sapiens (Human), UniProt P98170); assay: BIR binding assay (FRET competition), XIAP BIR3; details: for XIAP BIR3 vs BIR2 separation window: fold separation (FS) for XIAP
In short: as §1

cIAP1-BIR3 = cIAP1-BIR3 (Homo sapiens (Human), UniProt Q13490); assay: BIR binding assay (FRET competition), cIAP1 BIR3; details: for cIAP1 BIR3 vs BIR2 separation window: fold separation (FS) for cIAP1
In short: as §1

XIAP-BIR2 = XIAP-BIR2 (Homo sapiens (Human), UniProt P98170); assay: BIR binding assay (FRET competition), XIAP BIR2; details: FRET competition binding; for IC50: read-out: XIAP BIR2 (pIC50) (converted)
In short: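 Competitive TR-FRET used His-tagged XIAP-BIR2 (200 nM) and 200 nM AlexaFluor647-labelled AVPIAQKSE SMAC peptide in HEPES buffer pH 7.4 with CHAPS, glycerol and DTT, incubated 60 min before 30 min with 2 nM Eu-W1024. The 615/665 nm ratio from a 15-point, 3-fold series was fit with a four-parameter model for IC50/pIC50.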

[1] = system: Jurkat HIV-luciferase clones; assay: Jurkat latency reversal assay; format: cell-based; details: Homo sapiens, 48 h; Jurkat latency reversal assay potency; read-out: Jurkat pEC50 (converted)
In short: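 Compounds are titrated 3-fold over 14 points from 10 μM in duplicate at 0.5% DMSO. Clones C16, 115 and N6, grown with 500 nM EFV, are co-incubated for 48 h at 37° C. Virally driven luciferase is read by luminescence, and EC50 and maximal percent activation versus vehicle come from a four-parameter model.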

Chain of XIAP-BIR3 (P98170 241-356): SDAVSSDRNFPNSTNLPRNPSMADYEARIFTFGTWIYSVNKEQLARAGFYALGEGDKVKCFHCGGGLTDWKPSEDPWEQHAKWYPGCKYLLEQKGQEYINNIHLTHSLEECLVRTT
Chain of cIAP2-BIR3 (Q13489 238-349): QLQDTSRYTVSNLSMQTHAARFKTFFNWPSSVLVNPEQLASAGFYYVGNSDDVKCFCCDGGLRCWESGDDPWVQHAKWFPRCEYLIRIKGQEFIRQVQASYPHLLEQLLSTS
Chain of cIAP2-BIR2 (Q13489 158-242): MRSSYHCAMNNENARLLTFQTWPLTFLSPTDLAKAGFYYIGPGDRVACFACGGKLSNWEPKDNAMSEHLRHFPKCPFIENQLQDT
Chain of XIAP-BIR2 (P98170 124-240): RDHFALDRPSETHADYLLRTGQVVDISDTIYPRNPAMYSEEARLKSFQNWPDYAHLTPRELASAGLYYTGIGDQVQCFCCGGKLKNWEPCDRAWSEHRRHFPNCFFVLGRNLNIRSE
Chain of cIAP1-BIR3 (Q13490 253-363): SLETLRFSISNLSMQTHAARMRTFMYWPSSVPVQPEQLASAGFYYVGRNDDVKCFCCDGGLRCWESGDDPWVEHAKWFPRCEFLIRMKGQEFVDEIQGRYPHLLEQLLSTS
Chain of cIAP1-BIR2 (Q13490 173-257): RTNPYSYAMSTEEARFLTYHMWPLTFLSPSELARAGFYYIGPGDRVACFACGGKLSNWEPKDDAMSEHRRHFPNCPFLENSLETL

SMILES | pIC50 (cIAP2-BIR2) | pIC50 (cIAP2-BIR3) | cIAP2 BIR3 vs BIR2 separation window (cIAP2-BIR3) | pIC50 (cIAP1-BIR2) | pIC50 (XIAP-BIR3) | XIAP BIR3 vs BIR2 separation window (XIAP-BIR3) | pIC50 (cIAP1-BIR3) | cIAP1 BIR3 vs BIR2 separation window (cIAP1-BIR3) | IC50 (XIAP-BIR2) | EC50 [1] | cIAP2 BIR3 (pIC50) (cIAP2-BIR3; FRET competition binding) | XIAP BIR2 (pIC50) (XIAP-BIR2) | cIAP1 BIR3 (pIC50) (cIAP1-BIR3; FRET competition binding)
C[C@@H]1CN(CC(=O)N2CC(C)(C)c3[nH]c(=O)c(Cc4ccc(F)cc4)cc32)[C@@H](CN2CCC[C@H](NC(=O)Cc3cccc(CC(=O)N[C@H]4CCCN(C[C@H]5CN[C@H](C)CN5CC(=O)N5CC(C)(C)c6[nH]c(=O)c(Cc7ccc(F)cc7)cc65)C4)c3)C2)CN1 [Example 41, 2,2′-(1,3-phenylene)bis(N-((S)-1-(((2R,5R)-1-(2-(6-(4-fluorobenzyl)-3,3-dimethyl-5-oxo-2,3,4,5-tetrahydro-1H-pyrrolo[3,2-b]pyridin-1-yl)-2-oxoethyl)-5-methylpiperazin-2-yl)methyl)piperidin-3-yl)acetamide)] | 5.00 to 5.50 | 6.30 to 7.50 | +++ (10,000>FS>1,000) | 5.00 to 5.50 | 6.30 to 7.50 | +++ (10,000>FS>1,000) | 6.30 to 7.50 | +++ (10,000>FS>1,000) | 10000 to 51300 nM | 316 to 3310 nM |  |  | 
C[C@@H]1CN(CC(=O)N2CC(C)(C)c3[nH]c(=O)c(Cc4ccc(F)cc4)cc32)[C@@H](CN2CCC[C@H](NC(=O)Cc3ccc(CC(=O)N[C@H]4CCCN(C[C@H]5CN[C@H](C)CN5CC(=O)N5CC(C)(C)c6[nH]c(=O)c(Cc7ccc(F)cc7)cc65)C4)cc3)C2)CN1 [Example 42, 2,2′-(1,4-phenylene)bis(N-((S)-1-(((2R,5R)-1-(2-(6-(4-fluorobenzyl)-3,3-dimethyl-5-oxo-2,3,4,5-tetrahydro-1H-pyrrolo[3,2-b]pyridin-1-yl)-2-oxoethyl)-5-methylpiperazin-2-yl)methyl)piperidin-3-yl)acetamide)] | 5.00 to 5.50 |  | +++ (10,000>FS>1,000) | 5.00 to 5.50 | 6.30 to 7.50 | +++ (10,000>FS>1,000) | 6.30 to 7.50 | ++ (1,000>FS>100) |  | 316 to 3310 nM | ++ (7.80>pIC50>=7.50) | + (4.29<pIC50<=5.00) | 
C[C@@H]1CN(CC(=O)N2CC(C)(C)c3[nH]c(=O)c(Cc4ccc(F)cc4)cc32)[C@@H](CN2CCC[C@@H](NC(=O)CCCCCCC(=O)N[C@@H]3CCCN(C[C@H]4CN[C@H](C)CN4CC(=O)N4CC(C)(C)c5[nH]c(=O)c(Cc6ccc(F)cc6)cc54)C3)C2)CN1 [Example 44, N^1,N^8-bis((R)-1-(((2R,5R)-1-(2-(6-(4-fluorobenzyl)-3,3-dimethyl-5-oxo-2,3,4,5-tetrahydro-1H-pyrrolo[3,2-b]pyridin-1-yl)-2-oxoethyl)-5-methylpiperazin-2-yl)methyl)piperidin-3-yl)octanediamide] | 4.29 to 5.00 | 7.50 to 7.80 | ++++ (FS>10,000) | 4.29 to 5.00 | 7.50 to 7.80 | ++++ (FS>10,000) |  | +++ (10,000>FS>1,000) |  | 316 to 3310 nM |  | + (4.29<pIC50<=5.00) | + (7.50>pIC50>=6.30)
C[C@@H]1CN(CC(=O)N2CC(C)(C)c3[nH]c(=O)c(Cc4ccc(F)cc4)cc32)[C@@H](CN2CCC[C@@H](NC(=O)Cc3ccc(CC(=O)N[C@@H]4CCCN(C[C@H]5CN[C@H](C)CN5CC(=O)N5CC(C)(C)c6[nH]c(=O)c(Cc7ccc(F)cc7)cc65)C4)cc3)C2)CN1 [Example 48, 2,2′-(1,4-phenylene)bis(N-((R)-1-(((2R,5R)-1-(2-(6-(4-fluorobenzyl)-3,3-dimethyl-5-oxo-2,3,4,5-tetrahydro-1H-pyrrolo[3,2-b]pyridin-1-yl)-2-oxoethyl)-5-methylpiperazin-2-yl)methyl)piperidin-3-yl)acetamide)] | 4.29 to 5.00 | 7.50 to 7.80 | ++++ (FS>10,000) | 4.29 to 5.00 | 7.50 to 7.80 | ++++ (FS>10,000) | 7.50 to 7.80 | +++ (10,000>FS>1,000) | 10000 to 51300 nM | 316 to 3310 nM |  |  | 
C[C@@H]1CN(CC(=O)N2CC(C)(C)c3[nH]c(=O)c(Cc4ccc(F)cc4)cc32)[C@@H](CN2CCO[C@H](COCC#CC#CCOC[C@@H]3CN(C[C@H]4CN[C@H](C)CN4CC(=O)N4CC(C)(C)c5[nH]c(=O)c(Cc6ccc(F)cc6)cc54)CCO3)C2)CN1 [Example 63, 1,1′-(2,2′-((3R,3′R,6R,6′R)-(((2S,2'S)-((hexa-2,4-diyne-1,6-diylbis(oxy))bis(methylene))bis(morpholine-2,4-diyl))bis(methylene))bis(3-methylpiperazine-6,1-diyl))bis(acetyl))bis(6-(4-fluorobenzyl)-3,3-dimethyl-1,2,3,4-tetrahydro-5H-pyrrolo[3,2-b]pyridin-5-one)] | 5.00 to 5.50 | 7.50 to 7.80 |  | 5.50 to 6.00 | 7.50 to 7.80 |  | 7.80 to 8.10 |  | 10000 to 51300 nM | 12.6 to 63.1 nM |  |  | 
